Results reported in patent publication US20230042936A1, “PYRIDO[2,3-d]PYRIMIDIN-7(8H)-ONES AS CDK INHIBITORS” (PROSENESTAR LLC, priority 2020, published 2023).

Test system: pRB phosphorylation and cell cycle markers in MDA-MB-231 and MDA-MB-468 cells
Assay: Immunoblotting of cell cycle markers
Type: cell-based, human
Settings: GI50 dose, 48 hours; FIG. 6
Experimental: MDA-MB-231 and MDA-MB-468 cells were treated with the indicated compounds using the G150 corresponding to the MDA-MB-231 cell line, and 48 hours later lysed in Laemmli buffer (60 mM Tris-Cl pH 6.8, 10% Glycerol, 2% SDS). Protein concentration was determined using BCA method (Pierce).

Question: Which results are given for `CC(=O)c1c(C)c2cnc(Nc3ccc(N4CCC(CCCO)CC4)cc3)nc2n(C2CCCC2)c1=O` [PS009, 6-acetyl-8-cyclopentyl-2-((4-(4-(3-hydroxypropyl)piperidin-1-yl)phenyl)amino)-5-methylpyrido[2,3-d]pyrimidin-7(8H)-one]?
Answer: levels of cell cycle markers: reduced levels of most cell cycle markers; pRB phosphorylation: strong inhibition
